From patent US8278473B2, “Alpha, beta-unsaturated imidate compound and pesticidal composition containing the same” (Sumitomo Chemical Company, Limited, priority 2007, dated 2012)

These compounds were tested on Haemaphysalis longicornis (assay: Test Example 10: Haemaphysalis longicornis, treated filter paper pouch). Conditions: 0.5 mg compound on filter paper 5×10 cm; non-blood sucking nymphal ticks; after 2 days.
Format: in vivo
Procedure: In 1 mL of acetone, 0.5 mg of any one of the present compounds 1 to 48 was dissolved, and the solution was spread uniformly on one side of a filter paper (TOYO No. 2; 5×10 cm). After dried, the filter paper was folded into two, and the sides were clipped to make a pouch. Into the pouch, tested ticks (Haemaphysalis longicornis, non-blood sucking nymphal ticks, 10 ticks in a group) were placed. The pouch was clipped and sealed. After 2 days, the number of dead ticks was counted.
Work on CC(=COc1ccc(C)cc1)C(=Nc1ccc(C)cc1)Oc1cccc(C)c1 [Compound 210, 3-methylphenyl 2-methyl-N-(4-methylphenyl)-3-(4-methylphenyloxy)-2-propenimidate] yielded a death rate of 100%.
For CC(=COc1ccc(Oc2ccccc2)cc1)C(=Nc1ccccc1)Oc1ccccc1 [Compound 291, phenyl 2-methyl-3-(4-phenoxyphenyloxy)-N-phenyl-2-propenimidate], the death rate was 100%.
With CC(=COc1ccc(C)cc1)C(=Nc1ccccc1)Oc1ccc(F)cc1 [Compound 199, 4-fluorophenyl 2-methyl-3-(4-methylphenyloxy)-N-phenyl-2-propenimidate] the death rate was 100%.
Compound CC(=COc1cccc(C)c1)C(=Nc1ccccc1)Oc1cccc(C(C)C)c1 [Compound 178, 3-isopropylphenyl 2-methyl-3-(3-methylphenyloxy)-N-phenyl-2-propenimidate] has a death rate of 100%.
With CC(=COc1ccc(C(C)C)cc1)C(=Nc1ccccc1)Oc1ccccc1 [Compound 230, phenyl 3-(4-isopropylphenyloxy)-2-methyl-N-phenyl-2-propenimidate] the death rate was 100%.
For CC(=COc1ccc(Cl)cc1)C(=Nc1ccccc1)Oc1ccccc1 [Compound 231, phenyl 3-(4-chlorophenyloxy)-2-methyl-N-phenyl-2-propenimidate], the death rate was 100%.
Compound CCc1cccc(OC(=Nc2ccc(C)cc2)C(C)=COc2ccccc2OC)c1 [Compound 241, 3-ethylphenyl 3-(2-methoxyphenyloxy)-2-methyl-N-(4-methylphenyl)-2-propenimidate] has a death rate of 100%.
COc1ccc(N=C(Oc2cccc(C)c2)C(C)=COc2cccc(C)c2)cc1 [Compound 189, 3-methylphenyl N-(4-methoxyphenyl)-2-methyl-3-(3-methylphenyloxy)-2-propenimidate] showed a death rate of 100%.
Compound CC(=COc1ccc(C)cc1)C(=Nc1ccccc1)Oc1cccc(F)c1 [Compound 198, 3-fluorophenyl 2-methyl-3-(4-methylphenyloxy)-N-phenyl-2-propenimidate] has a death rate of 100%.
Work on COc1cccc(OC(=Nc2ccccc2)C(C)=COc2ccccc2OC)c1 [Compound 236, 3-methoxyphenyl 3-(2-methoxyphenyloxy)-2-methyl-N-phenyl-2-propenimidate] yielded a death rate of 100%.
In the case of COc1ccc(OC=C(C)C(=Nc2ccccc2)Oc2cccc(OC)c2)cc1 [Compound 266, 3-methoxyphenyl 3-(4-methoxyphenyloxy)-2-methyl-N-phenyl-2-propenimidate], the death rate is reported as 100%.
CC(=COc1ccc(C)cc1)C(=Nc1ccccc1)Oc1ccc2ccccc2c1 [Compound 207, 2-naphthyl 2-methyl-3-(4-methylphenyloxy)-N-phenyl-2-propenimidate] gave a death rate of 100%.
With COc1ccc(OC=C(C)C(=Nc2ccc(C)cc2)Oc2ccc(C)cc2)cc1 [Compound 271, 4-methylphenyl 3-(4-methoxyphenyloxy)-2-methyl-N-(4-methylphenyl)-2-propenimidate] the death rate was 100%.
CC(=COc1ccc(C)cc1)C(=Nc1ccc(C)cc1)Oc1ccc(F)cc1 [Compound 215, 4-fluorophenyl 2-methyl-N-(4-methylphenyl)-3-(4-methylphenyloxy)-2-propenimidate] gave a death rate of 100%.
In the case of COc1ccccc1OC=C(C)C(=Nc1ccccc1)Oc1cc(C)cc(C)c1 [Compound 238, 3,5-dimethylphenyl 3-(2-methoxyphenyloxy)-2-methyl-N-phenyl-2-propenimidate], the death rate is reported as 100%.
CCc1cccc(OC(=Nc2ccc(C)cc2)C(C)=COc2ccc(OC)cc2)c1 [Compound 272, 3-ethylphenyl 3-(4-methoxyphenyloxy)-2-methyl-N-(4-methylphenyl)-2-propenimidate] gave a death rate of 100%.
CCC(=COc1ccccc1)C(=Nc1ccccc1)Sc1ccccc1 [Compound 300, phenyl 2-ethyl-3-phenoxy-N-phenyl-2-propenimidothioate] showed a death rate of 100%.
CC(=COc1cccc(C)c1)C(=Nc1ccccc1)Oc1ccccc1 [Compound 175, phenyl 2-methyl-3-(3-methylphenyloxy)-N-phenyl-2-propenimidate] gave a death rate of 100%.
In the case of COc1ccccc1OC=C(C)C(=Nc1ccc(C)c(C)c1)Oc1cccc(C)c1 [Compound 252, 3-methylphenyl N-(3,4-dimethylphenyl)-3-(2-methoxyphenyloxy)-2-methyl-2-propenimidate], the death rate is reported as 100%.
With COc1cccc(OC=C(C)C(=Nc2ccccc2)Oc2ccccc2)c1 [Compound 257, phenyl 3-(3-methoxyphenyloxy)-2-methyl-N-phenyl-2-propenimidate] the death rate was 100%.
COc1ccc(N=C(Oc2cccc(C)c2)C(C)=COc2ccccc2OC)cc1 [Compound 246, 3-methylphenyl N-(4-methoxyphenyl)-3-(2-methoxyphenyloxy)-2-methyl-2-propenimidate] was tested, and the death rate was 100%.
CCC(=COc1ccccc1)C(=Nc1ccccc1)Oc1ccccc1 [Compound 301, phenyl 2-ethyl-3-phenoxy-N-phenyl-2-propenimidate] was tested, and the death rate was 100%.
Work on CC(=COc1cccc(C)c1)C(=Nc1ccc(C)cc1)Oc1cccc(C)c1 [Compound 184, 3-methylphenyl 2-methyl-N-(4-methylphenyl)-3-(3-methylphenyloxy)-2-propenimidate] yielded a death rate of 100%.
Work on COc1ccccc1OC=C(C)C(=Nc1ccc(C)cc1)Oc1ccccc1 [Compound 239, phenyl 3-(2-methoxyphenyloxy)-2-methyl-N-(4-methylphenyl)-2-propenimidate] yielded a death rate of 100%.
COc1ccc(OC(=Nc2ccc(C)cc2)C(C)=COc2ccc(C)cc2)cc1 [Compound 221, 4-methoxyphenyl 2-methyl-N-(4-methylphenyl)-3-(4-methylphenyloxy)-2-propenimidate] showed a death rate of 100%.
In the case of CCOc1cccc(OC(=Nc2ccccc2)C(C)=COc2ccccc2OC)c1 [Compound 237, 3-ethoxyphenyl 3-(2-methoxyphenyloxy)-2-methyl-N-phenyl-2-propenimidate], the death rate is reported as 100%.
CC(=COc1ccc(C)c(C)c1)C(=Nc1ccccc1)Oc1ccccc1 [Compound 292, phenyl 3-(3,4-dimethylphenyloxy)-2-methyl-N-phenyl-2-propenimidate] gave a death rate of 100%.
In the case of COc1ccc(OC=C(C)C(=Nc2ccc(C)cc2)Oc2cccc(OC)c2)cc1 [Compound 273, 3-methoxyphenyl 3-(4-methoxyphenyloxy)-2-methyl-N-(4-methylphenyl)-2-propenimidate], the death rate is reported as 100%.
COc1ccc(N=C(Oc2cccc(C)c2)C(C)=COc2ccc(C)cc2)cc1 [Compound 225, 3-methylphenyl N-(4-methoxyphenyl)-2-methyl-3-(4-methylphenyloxy)-2-propenimidate] was tested, and the death rate was 100%.
Compound CC(=COc1cccc(C)c1)C(=Nc1ccccc1)Oc1cccc(C)c1 [Compound 176, 3-methylphenyl 2-methyl-3-(3-methylphenyloxy)-N-phenyl-2-propenimidate] has a death rate of 100%.
CCc1cccc(OC(=Nc2ccccc2)C(C)=COc2ccccc2OC)c1 [Compound 234, 3-ethylphenyl 3-(2-methoxyphenyloxy)-2-methyl-N-phenyl-2-propenimidate] showed a death rate of 100%.
For CCc1ccc(OC=C(C)C(=Nc2ccccc2)Oc2ccccc2)cc1 [Compound 229, phenyl 3-(4-ethylphenyloxy)-2-methyl-N-phenyl-2-propenimidate], the death rate was 100%.
